From patent publication US20250059229A1, “Compositions and Methods for Selective Labeling of Secondary Amines” (Emory University, priority 2021, published 2025) come the findings set out here.

This data set can be described thus: Fluorescence (chromophoric) properties of 2H-indazole-3-carbaldehyde. The data set is classed as physicochemical. Particulars: FIG. 9D.

In the case of `O=Cc1[nH]nc2ccccc12` [2H-indazole-3-carbaldehyde], the fluorescence wavelength entry is listed as “about 500 nm”. For the same compound, for the setting “compared to unmodified PAF”, the “increase in fluorescence as compared to unmodified PAF” value amounted to 100 fold.
